Laboratory results taken from patent US8569302B2, “Inhibitors of flaviviridae viruses” (Gilead Sciences, Inc., priority 2009, dated 2013).

These compounds were tested on human hepatoma Huh-7 cell line harboring a HCV replicon (assay: HCV replicon assay (inhibition of viral replication, luciferase readout)). Conditions: Hepatitis C virus, 72 h, Huh-7 HCV replicon cells, 3 days incubation.
Type: cell-based
Outline: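 Read-outs: luciferase luminescence for replication inhibition, corrected by ITMN-191 (100% inhibition) wells, and calcein AM fluorescence for cytotoxicity. Cells were treated for 3 days at 37 °C with ten 3-fold compound dilutions in 0.44% final DMSO. Percent inhibition relative to DMSO was fitted with a Hill equation to give EC50 and CC50.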

In order of rising inhibition at 2 µM:
1. CC(C)(C)C#Cc1cc(N(C(=O)[C@H]2CC[C@H](C)CC2)[C@H]2CC[C@H](Sc3ccccn3)CC2)c(C(=O)O)s1 [Compound 99, 5-(3,3-Dimethylbut-1-ynyl)-3-(4-methyl-N-(4-(pyridin-2-ylthio)cyclohexyl)cyclohexanecarboxamido)thiophene-2-carboxylic acid]  97.7%
2. CC(C)(C)C#Cc1cc(N(C(=O)[C@H]2CC[C@H](C)CC2)[C@H]2CC[C@H](Sc3cccs3)CC2)c(C(=O)O)s1 [Compound 93, 5-(3,3-Dimethylbut-1-ynyl)-3-(4-methyl-N-(4-(thiophen-2-ylthio)cyclohexyl)cyclohexanecarboxamido)thiophene-2-carboxylic acid]  98.1%
3. Cc1nnc(S[C@H]2CC[C@@H](N(c3cc(C#CC(C)(C)C)sc3C(=O)O)C(=O)[C@H]3CC[C@H](C)CC3)CC2)s1 [Compound 103, 5-(3,3-Dimethylbut-1-ynyl)-3-(4-methyl-N-(4-(5-methyl-1,3,4-thiadiazol-2-ylthio)cyclohexyl)cyclohexanecarboxamido)thiophene-2-carboxylic acid]  98.3%
4. Cn1nnnc1S[C@H]1CC[C@@H](N(c2cc(C#CC(C)(C)C)sc2C(=O)O)C(=O)[C@H]2CC[C@H](C)CC2)CC1 [Compound 104, 5-(3,3-Dimethylbut-1-ynyl)-3-(4-methyl-N-(4-(1-methyl-1H-tetrazol-5-ylthio)cyclohexyl)cyclohexanecarboxamido)thiophene-2-carboxylic acid]  98.7%
5. CC(C)(C)C#Cc1cc(N(C(=O)[C@H]2CC[C@H](C)CC2)[C@H]2CC[C@@H](Sc3nccs3)CC2)c(C(=O)O)s1 [Compound 107, 5-(3,3-Dimethylbut-1-ynyl)-3-(4-methyl-N-(4-(thiazol-2-ylthio)cyclohexyl)cyclohexanecarboxamido)thiophene-2-carboxylic acid]  98.9%
6. CC(C)(C)C#Cc1cc(N(C(=O)[C@H]2CC[C@H](C)CC2)[C@H]2CC[C@@H](Sc3ncccn3)CC2)c(C(=O)O)s1 [Compound 108, 5-(3,3-Dimethylbut-1-ynyl)-3-(4-methyl-N-(4-(pyrimidin-2-ylthio)cyclohexyl)cyclohexanecarboxamido)thiophene-2-carboxylic acid]  99.3%
7. CC1CCC(C(=O)N(CCOc2cccnc2)c2cc(C#CC(C)(C)C)sc2C(=O)O)CC1 (centres unmarked) [Compound 138]  99.7%
8. Cn1nnnc1[S+]([O-])[C@H]1CC[C@H](N(c2cc(C#CC(C)(C)C)sc2C(=O)O)C(=O)[C@H]2CC[C@H](C)CC2)CC1 (stereo partly drawn) [Compound 111, 5-(3,3-Dimethylbut-1-ynyl)-3-((1r,4S)-4-methyl-N-(4-((R)-1-methyl-1H-tetrazol-5-ylsulfinyl)cyclohexyl)cyclohexanecarboxamido)thiophene-2-carboxylic acid]  99.8%
9. CC(C)(C)C#Cc1cc(N(C(=O)[C@H]2CC[C@H](C)CC2)[C@H]2CC[C@H](Sc3ncc[nH]3)CC2)c(C(=O)O)s1 [Compound 94, 3-(N-(4-(1H-Imidazol-2-ylthio)cyclohexyl)-4-methylcyclohexanecarboxamido)-5-(3,3-dimethylbut-1-ynyl)thiophene-2-carboxylic acid]  99.9%
10. CC(C)(C)C#Cc1cc(N(C(=O)[C@H]2CC[C@H](C)CC2)[C@H]2CC[C@H](Sc3nc(N)n[nH]3)CC2)c(C(=O)O)s1 [Compound 95, 3-(N-(4-(5-Amino-2H-1,2,4-triazol-3-ylthio)cyclohexyl)-4-methylcyclohexanecarboxamido)-5-(3,3-dimethylbut-1-ynyl)thiophene-2-carboxylic acid]  99.9%
11. CC(C)(C)C#Cc1cc(N(C(=O)[C@H]2CC[C@H](C)CC2)[C@H]2CC[C@H](Sc3nc[nH]n3)CC2)c(C(=O)O)s1 [Compound 97, 3-(N-(4-(1H-1,2,4-Triazol-3-ylthio)cyclohexyl)-4-methylcyclohexanecarboxamido)-5-(3,3-dimethylbut-1-ynyl)thiophene-2-carboxylic acid]  99.9%
12. CC(C)(C)C#Cc1cc(N(C(=O)[C@H]2CC[C@H](C)CC2)[C@H]2CC[C@H](Sc3ncccn3)CC2)c(C(=O)O)s1 [Compound 100, 5-(3,3-Dimethylbut-1-ynyl)-3-(4-methyl-N-(4-(pyrimidin-2-ylthio)cyclohexyl)cyclohexanecarboxamido)thiophene-2-carboxylic acid]  99.9%
13. Cc1nnc(S[C@H]2CC[C@H](N(c3cc(C#CC(C)(C)C)sc3C(=O)O)C(=O)[C@H]3CC[C@H](C)CC3)CC2)s1 [Compound 102, 5-(3,3-Dimethylbut-1-ynyl)-3-(4-methyl-N-(4-(5-methyl-1,3,4-thiadiazol-2-ylthio)cyclohexyl)cyclohexanecarboxamido)thiophene-2-carboxylic acid]  99.9%
14. CC(C)(C)C#Cc1cc(N(C(=O)[C@H]2CC[C@H](C)CC2)[C@H]2CC[C@@H](Sc3nncs3)CC2)c(C(=O)O)s1 [Compound 105, 3-(N-(4-(1,3,4-Thiadiazol-2-ylthio)cyclohexyl)-4-methylcyclohexanecarboxamido)-5-(3,3-dimethylbut-1-ynyl)thiophene-2-carboxylic acid]  99.9%
15. CC(C)(C)C#Cc1cc(N(C(=O)[C@H]2CC[C@H](C)CC2)[C@H]2CC[C@H](Sc3nccs3)CC2)c(C(=O)O)s1 [Compound 106, 5-(3,3-Dimethylbut-1-ynyl)-3-(4-methyl-N-(4-(thiazol-2-ylthio)cyclohexyl)cyclohexanecarboxamido)thiophene-2-carboxylic acid]  99.9%
16. CC(C)(C)C#Cc1cc(N(C(=O)[C@H]2CC[C@H](C)CC2)[C@H]2CC[C@H](S(=O)(=O)C3CCOCC3)CC2)c(C(=O)O)s1 [Compound 109, 5-(3,3-Dimethylbut-1-ynyl)-3-(4-methyl-N-(4-(tetrahydro-2H-pyran-4-ylsulfonyl)cyclohexyl)cyclohexanecarboxamido)thiophene-2-carboxylic acid]  99.9%
17. CC(C)(C)C#Cc1cc(N(C(=O)[C@H]2CC[C@H](C)CC2)[C@H]2CC[C@H](Sc3nnc4ccccn34)CC2)c(C(=O)O)s1 [Compound 92, 3-(N-(4-([1,2,4]-Triazolo[4,3-a]pyridin-3-ylthio)cyclohexyl)-4-methylcyclohexanecarboxamido)-5-(3,3-dimethylbut-1-ynyl)thiophene-2-carboxylic acid]  100%
18. Cc1nnc(S[C@H]2CC[C@H](N(c3cc(C#CC(C)(C)C)sc3C(=O)O)C(=O)[C@H]3CC[C@H](C)CC3)CC2)o1 [Compound 98, 5-(3,3-Dimethylbut-1-ynyl)-3-(4-methyl-N-(4-(5-methyl-1,3,4-oxadiazol-2-ylthio)cyclohexyl)cyclohexanecarboxamido)thiophene-2-carboxylic acid]  100%
19. Cn1nnnc1S[C@H]1CC[C@H](N(c2cc(C#CC(C)(C)C)sc2C(=O)O)C(=O)[C@H]2CC[C@H](C)CC2)CC1 [Compound 101, 5-(3,3-Dimethylbut-1-ynyl)-3-(4-methyl-N-(4-(1-methyl-1H-tetrazol-5-ylthio)cyclohexyl)cyclohexanecarboxamido)thiophene-2-carboxylic acid]  100%
20. Cn1nnnc1S(=O)(=O)[C@H]1CC[C@H](N(c2cc(C#CC(C)(C)C)sc2C(=O)O)C(=O)[C@H]2CC[C@H](C)CC2)CC1 [Compound 110, 5-(3,3-Dimethylbut-1-ynyl)-3-(4-methyl-N-(4-(1-methyl-1H-tetrazol-5-ylsulfonyl)cyclohexyl)cyclohexanecarboxamido)thiophene-2-carboxylic acid]  100%
